The source of these data is PMC8188608 (Chemical Science, 2021).

The test system of one data set is E. coli TolC. As to the kind of experiment: microbe, parasite or virus in culture. It counts as cell-based. Particulars: for inhibition at 50 µM / MIC: Escherichia coli; for inhibition at 50 µM: read-out: inhib. (%) growth inhibition of E. coli TolC; for MIC: read-out: MIC E. coli TolC.
Data set [1] has as its target T1, drDXPS (Deinococcus radiodurans, UniProt Q9RUB5). As to the kind of experiment: biochemical. Particulars: for IC50: IC50 drDXPS.
For another data set, the target named is mtDXPS (Mycobacterium tuberculosis, UniProt P9WNS3). Briefly: biochemical. Particulars: for inhibition at 200 µM / inhibition at 120 µM: read-out: inhib. (%) mtDXPS; for inhib. (%) mtDXPS: at 120 μM (Table 3: concentration only given).
For data set [2], the target named is T1, drDXPS. As to the kind of experiment: biochemical. The following applies: for inhibition at 120 µM: read-out: inhib. (%) drDXPS, at 120 μM.
The format of data set [3] is physicochemical. The following applies: when added at higher concentrations.
A further data set deals with M. tuberculosis H37Rv. Briefly: microbe, parasite or virus in culture. The following applies: for anti-TB activity, head-to-head comparative analysis: 16 μM, 14 compounds tested; for MIC: Mycobacterium tuberculosis, H37RV, read-out: MIC M. tuberculosis. It counts as cell-based, Mycobacterium tuberculosis.
Data set [4] addresses T1, drDXPS. Type of data set: binding.

The structures appear in SMILES notation. Values after ≈ are worked out from the molar mass of the structure shown.

T1 sequence (Q9RUB5 whole entry): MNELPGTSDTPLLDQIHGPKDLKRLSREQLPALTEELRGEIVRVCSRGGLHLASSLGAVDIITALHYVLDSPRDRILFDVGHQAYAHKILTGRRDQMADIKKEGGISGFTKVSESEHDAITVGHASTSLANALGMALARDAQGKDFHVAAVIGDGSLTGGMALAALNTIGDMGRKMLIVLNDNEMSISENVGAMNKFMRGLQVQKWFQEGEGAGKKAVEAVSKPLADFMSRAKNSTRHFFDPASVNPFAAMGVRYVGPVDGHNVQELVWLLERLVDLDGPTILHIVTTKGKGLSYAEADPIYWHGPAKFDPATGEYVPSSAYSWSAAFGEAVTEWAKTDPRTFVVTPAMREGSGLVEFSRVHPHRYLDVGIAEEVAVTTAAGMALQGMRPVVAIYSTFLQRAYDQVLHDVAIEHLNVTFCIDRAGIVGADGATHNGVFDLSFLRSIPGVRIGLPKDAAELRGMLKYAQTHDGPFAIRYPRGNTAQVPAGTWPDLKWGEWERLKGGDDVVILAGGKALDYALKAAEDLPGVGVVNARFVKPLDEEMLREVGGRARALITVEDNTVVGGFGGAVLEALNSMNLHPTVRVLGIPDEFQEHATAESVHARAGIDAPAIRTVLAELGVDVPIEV
Chain of mtDXPS (P9WNS3 whole entry): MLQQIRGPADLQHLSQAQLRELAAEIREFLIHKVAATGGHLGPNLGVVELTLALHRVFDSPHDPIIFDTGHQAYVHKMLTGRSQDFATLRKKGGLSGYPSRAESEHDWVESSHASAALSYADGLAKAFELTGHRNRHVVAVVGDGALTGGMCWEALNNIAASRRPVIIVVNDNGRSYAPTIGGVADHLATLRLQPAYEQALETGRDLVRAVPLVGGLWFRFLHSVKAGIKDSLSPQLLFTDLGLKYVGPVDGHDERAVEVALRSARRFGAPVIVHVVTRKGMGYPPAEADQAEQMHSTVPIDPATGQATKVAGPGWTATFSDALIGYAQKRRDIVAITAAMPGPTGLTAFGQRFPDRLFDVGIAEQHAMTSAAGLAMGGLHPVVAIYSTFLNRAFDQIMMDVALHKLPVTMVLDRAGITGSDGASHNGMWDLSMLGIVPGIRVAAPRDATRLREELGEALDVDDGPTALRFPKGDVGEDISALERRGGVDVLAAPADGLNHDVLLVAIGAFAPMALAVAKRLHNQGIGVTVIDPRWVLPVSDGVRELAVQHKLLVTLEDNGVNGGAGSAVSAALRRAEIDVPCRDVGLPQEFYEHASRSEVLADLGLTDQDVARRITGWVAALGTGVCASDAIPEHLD

For orientation: IC50 means the concentration that gives 50% inhibition. As for `O=C(N/N=C/c1ccc(C(F)(F)F)nc1)c1cc2c(s1)CCCC2` [Compound 1, (E)-N'-((6-(Trifluoromethyl)pyridin-3-yl)methylene)-4,5,6,7-tetrahydrobenzo[b]thiophene-2-carbohydrazide], the “inhib. (%) growth inhibition of E. coli TolC” value (“inhib. (%) growth inhibition” for short) with E. coli TolC (at 50 μM) is “no inhib. and n.i”. Further, the mode of inhibition entry at drDXPS [1] was “ThDP- and pyruvate-competitive and non-competitive with respect to D/L-GAP”. Besides, the IC50 against drDXPS [1] (at 0.3 μM ThDP) was 35 ± 10 µM; at drDXPS [1] (at 0.1 mM pyruvate), 19 ± 5 µM; at drDXPS [1] (at 0.4 mM pyruvate) it was 86 ± 15 µM; against drDXPS [1] (varying D/L-GAP concentrations), roughly 50 µM; on mtDXPS (IC50 mtDXPS), 78 µM; on drDXPS [2] (IC50 drDXPS) it was 51 µM. In addition, the “inhibition of drDXPS” value is recorded as 20% against drDXPS [1] (at 5 μM ThDP) and 32% against drDXPS [1] (at 0.6 mM pyruvate).

Consider `Nc1ncc(/C=N/NC(=O)c2cc3c(s2)CCCC3)cn1` [Compound 3], for which the “inhib. (%) growth inhibition” value in the data set on E. coli TolC (at 50 μM) was “n.i”. Further, the inhibition at 120 µM on drDXPS [2] turned out to be 15%.

Consider `O=C(Cc1c[nH]c2ccccc12)N/N=C/c1ccc(C(F)(F)F)nc1` [Compound 4], for which, on mtDXPS, the inhibition at 200 µM worked out at 25%. Further, the “inhib. (%) drDXPS” value against drDXPS [2] (at 120 μM) is listed as “n.i”.

Regarding `O=C(COc1ccc(Cl)cc1Cl)N/N=C/c1cc2c(s1)CCCC2` [Compound 6], in the data set on E. coli TolC (at 25 μM), the “inhib. (%) growth inhibition” value is “n.i.^#”. Further, on mtDXPS, the inhibition at 120 µM was 46%. For the same compound, on drDXPS [2] (IC50 drDXPS), the IC50 came to 101 µM.

With `O=C(N/N=C/c1cc2c(s1)CCCC2)c1cccs1` [Compound 7], the aggregate formation result in data set [3] is listed as “did not induce aggregate formation”. In addition, the inhibition at 50 µM with E. coli TolC worked out at 57%. Also, at mtDXPS, the inhibition at 120 µM came out at 65% and the inhibition at 200 µM was determined as 65 ± 4%. Moreover, at drDXPS [2], the inhibition at 120 µM was found to be 37%. For the same compound, in the data set with M. tuberculosis H37Rv, the “anti-TB activity, head-to-head comparative analysis” value is on record as “most active” and the MIC was greater than 64 µM.

For `O=C(COc1ccc(Cl)cc1Cl)N/N=C/c1c[nH]c2ccccc12` [Compound 9], the MIC in the data set on E. coli TolC was found to be 19 ± 7 µM (≈ 6.88 µg/mL). Further, the inhibition at 200 µM on mtDXPS was determined as 15%. In addition, the inhibition at 120 µM on drDXPS [2] is 38%.

`O=C(COc1ccc(Cl)cc1Cl)N/N=C/c1ccc(Br)cn1` [Compound 10]: in the data set with E. coli TolC, the inhibition at 50 µM turned out to be 21%. At mtDXPS, the inhibition at 200 µM amounted to 32%. The inhibition at 120 µM at drDXPS [2] worked out at 14%.

Take `O=C(CCCOc1ccc(Cl)cc1Cl)N/N=C/c1ncc[nH]1` [Compound 12]: the inhibition at 50 µM with E. coli TolC amounted to 30%. In addition, the inhibition at 120 µM at mtDXPS worked out at 9%; on drDXPS [2], 33%.

`O=C(CCCOc1ccc(Cl)cc1Cl)N/N=C/c1cccs1` [Compound 16]: the inhibition at 50 µM in the data set on E. coli TolC amounted to 28%. The “inhib. (%) mtDXPS” value at mtDXPS is reported as “n.i”. Further, the inhibition at 120 µM on drDXPS [2] came out at 4%.

For `CCN(CC)c1ccc(/C=N/NC(=O)c2cccs2)c(O)c1` [Compound 21], the MIC in the data set with E. coli TolC was 70 µM (≈ 22.2 µg/mL). The results for the inhibition at 120 µM at mtDXPS and on drDXPS [2] were 11% and 6%, respectively.

Consider `O=C(CCCOc1ccc(Cl)cc1Cl)N/N=C/c1cccc2[nH]ncc12` [Compound 22], for which the “inhib. (%) growth inhibition” value in the data set on E. coli TolC (at 50 μM) is on record as “n.i”. Further, the “inhib. (%) mtDXPS” value at mtDXPS is reported as “n.i”. Besides, the inhibition at 120 µM on drDXPS [2] is 47%.

On to `O=C(CCCOc1ccc(Cl)cc1Cl)N/N=C/c1ccc(O)cc1F` [Compound 23], for which the MIC in the data set with E. coli TolC amounted to 45 µM (≈ 17.3 µg/mL). For the same compound, at mtDXPS, the “inhib. (%) mtDXPS” value was “n.i”. For the same compound, the inhibition at 120 µM at drDXPS [2] lay in the range of 40 to 62%.

With `COc1cccc(/C=N/NC(=O)CCCOc2ccc(Cl)cc2Cl)c1O` [Compound 25], the MIC in the data set with E. coli TolC is 60 µM (≈ 23.8 µg/mL). Further, the “inhib. (%) mtDXPS” value at mtDXPS is listed as “n.i”. Besides, the inhibition at 120 µM on drDXPS [2] was determined as 45%.

Consider `O=C(CCCOc1ccc(Cl)cc1Cl)N/N=C/c1ccc2cc[nH]c2c1` [Compound 26], for which the MIC in the data set on E. coli TolC stood at 14 ± 4 µM (≈ 5.46 µg/mL). Further, the inhibition at 120 µM on mtDXPS turned out to be 5%; on drDXPS [2], 58%.

Regarding `O=C(N/N=C/c1ccc2cc[nH]c2c1)c1cc2c(s1)CCCC2` [Compound 35], in data set [3], the aggregate formation result is listed as “did not induce aggregate formation”. Also, the MIC with E. coli TolC was 16 ± 5 µM (≈ 5.17 µg/mL); in the data set with M. tuberculosis H37Rv, 64 µM (≈ 20.7 µg/mL). In addition, the values for the inhibition at 120 µM at mtDXPS and on drDXPS [2] were 30% and 62%, respectively. In addition, the “anti-TB activity, head-to-head comparative analysis” value in the data set with M. tuberculosis H37Rv was “most active”.

`CC(C)(C)OC(=O)N[C@@H](Cc1ccccc1)C(=O)N/N=C/c1ccc2cc[nH]c2c1` [Compound 37]: the inhibition at 50 µM with E. coli TolC amounted to 60%. Moreover, the inhibition at 120 µM is 3% on mtDXPS and 40% at drDXPS [2].

With `O=C(NCCc1ccc(C(F)(F)F)nc1)c1cc2c(s1)CCCC2` [Compound 38], the inhibition at 50 µM with E. coli TolC was 19%. For the same compound, the inhibition at 120 µM at drDXPS [2] stood at 25.8%.

`O=C(CCCOc1ccc(Cl)cc1Cl)NCCc1ccc(O)cc1F` [Compound 39]: the inhibition at 50 µM with E. coli TolC stood at 83%. Besides, the inhibition at 120 µM on drDXPS [2] came to 37%. Besides, the “fold decrease in binding affinity for drDXPS” value on drDXPS [4] is recorded as roughly 2 fold.

Turning to `FC(F)(F)c1ccc(-c2nnc(-c3cc4c(s3)CCCC4)o2)cn1` [Compound 40], the “inhib. (%) growth inhibition” value in the data set with E. coli TolC (at 50 μM) was “no inhibition and n.i”. In addition, the “KD drDXPS” value on drDXPS [4] (SPR, steady-state fit) is listed as “n.b”.

For `Oc1ccc(-c2nnc(CCCOc3ccc(Cl)cc3Cl)o2)c(F)c1` [Compound 41, 4-(5-(3-(2,4-dichlorophenoxy)propyl)-1,3,4-oxadiazol-2-yl)-3-fluorophenol], the inhibition at 50 µM in the data set with E. coli TolC stood at 47%. Moreover, the “inhib. (%) drDXPS” value against drDXPS [2] (at 60 μM) turned out to be 48 ± 3%. Besides, the IC50 on drDXPS [2] (estimated IC50 drDXPS, estimated assuming full inhibition at high concentrations) is 99 µM.
